Each structure is given as a SMILES string.

The values below come from paper PMC6146087, “α-Glucosidase Inhibitors From the Coral-Associated Fungus Aspergillus terreus” (Frontiers in Chemistry, 2018).

T1 sequence (P53341 whole entry): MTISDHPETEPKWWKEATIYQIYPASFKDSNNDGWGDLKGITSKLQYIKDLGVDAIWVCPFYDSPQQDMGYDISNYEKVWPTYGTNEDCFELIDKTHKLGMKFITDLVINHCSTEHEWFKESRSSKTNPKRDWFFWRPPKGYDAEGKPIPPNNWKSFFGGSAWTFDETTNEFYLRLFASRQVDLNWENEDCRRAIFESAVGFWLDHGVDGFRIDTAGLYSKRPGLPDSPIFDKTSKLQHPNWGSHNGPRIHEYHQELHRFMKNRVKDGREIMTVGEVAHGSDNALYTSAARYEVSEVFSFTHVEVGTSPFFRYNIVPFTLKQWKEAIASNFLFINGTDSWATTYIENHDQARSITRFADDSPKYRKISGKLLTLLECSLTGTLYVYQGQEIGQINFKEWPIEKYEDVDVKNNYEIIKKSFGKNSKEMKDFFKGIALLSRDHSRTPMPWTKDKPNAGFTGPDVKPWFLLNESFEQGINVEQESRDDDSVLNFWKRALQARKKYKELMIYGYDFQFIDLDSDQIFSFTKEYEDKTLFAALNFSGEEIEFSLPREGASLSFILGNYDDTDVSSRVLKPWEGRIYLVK

The assay addresses T1, α-glucosidase enzyme from Saccharomyces cerevisiae (Saccharomyces cerevisiae, UniProt P53341).
T1 construct: purchased Sigma Aldrich, USA
Briefly: biochemical. The method, then:
The α-glucosidase enzyme from Saccharomyces cerevisiae (Sigma Aldrich, USA) solution (1.5 U/mL) was prepared by dissolving the α-glucosidase in […] phosphate buffer (pH 6.8). The α-glucosidase enzyme solution (20 μL), test compounds (10 μL) and buffer (40 μL) were pipetted and mixed in a 96 well microtiter plate. The mixture was incubated at 37°C for 10 min. After incubation, p-nitrophenyl-α-D-glucopyranoside (PNP-G) substrate solution (10 μL, in 20 mM phosphate buffer) was added. The increment of absorbance due to the hydrolysis of PNP-G by α-glucosidase was measured at the wavelength of 410 nm with a microplate reader (Thermo Scientific, Waltham, MA). […] The α-glucosidase inhibitory activity was expressed as percentage inhibition and was calculated using the following formula: inhibition (%) = [1–(ODsample/ODblank)] × 100.
For `COc1ccc(C2=C(Cc3ccc4c(c3)CC(C(C)(C)O)O4)[C@H](OC)OC2=O)cc1` (single isomer, unassigned; (+)) [3b, (+)-Asperteretone C], the IC50 turned out to be 49.8 ± 5.7 µM. The result for `COc1ccc(C2=C(Cc3ccc4c(c3)CC(C(C)(C)O)O4)[C@@H](OC)OC2=O)cc1` (single isomer, unassigned; (-)) [3a, (−)-Asperteretone C] reads 52.2 ± 4.6 µM; that for `COC(=O)[C@@H](Cc1ccc(O)c(CC=C(C)C)c1)[C@H](C(=O)O)c1ccc(O)cc1` [1a, (−)-Asperteretone A], 45.4 ± 3.8 µM.

`COC(=O)[C@H](Cc1ccc(O)c(CC=C(C)C)c1)[C@@H](C(=O)O)c1ccc(O)cc1` [1b, (+)-Asperteretone A] gave a half-inhibitory concentration (IC50) of 53.1 ± 1.4 µM. The result for `CO[C@H]1OC(=O)C(c2ccc(O)cc2)=C1Cc1ccc(O)c(CC=C(C)C)c1` [2a, (−)-Asperteretone B] reads 17.3 ± 2.4 µM; that for `CO[C@@H]1OC(=O)C(c2ccc(O)cc2)=C1Cc1ccc(O)c(CC=C(C)C)c1` [2b, (+)-Asperteretone B], 19.2 ± 1.9 µM; that for `CO[C@H]1OC(=O)C(c2ccc(O)cc2)=C1Cc1ccc2c(c1)CCC(C)(C)O2` [4a, (−)-Asperteretone D], 15.7 ± 1.1 µM. The result for `CO[C@@H]1OC(=O)C(c2ccc(O)cc2)=C1Cc1ccc2c(c1)CCC(C)(C)O2` [4b, (+)-Asperteretone D] reads 18.9 ± 2.3 µM.

Consider `COC1OC(=O)C(c2ccc(O)cc2)=C1Cc1ccc(O)c(CCC(C)(C)O)c1` (stereo not drawn) [compound 5, Asperteretone E], for which the IC50 was 48.9 ± 7.3 µM.
